Several values for one entry are separate records, joined by “and”; a condition that tells them apart may be missing. Equal values may be shown once.
Key:
[1] = molecular target: T1, human A3 receptors expressed in CHO cells (Homo sapiens, UniProt P0DMS8); assay: competition binding at human A3 adenosine receptors ([3H]HEMADO displacement); conditions: displacement of [3H]HEMADO, 95% confidence limits, n = 3–6, read-out: Ki hA3
T1 sequence (P0DMS8 1-318): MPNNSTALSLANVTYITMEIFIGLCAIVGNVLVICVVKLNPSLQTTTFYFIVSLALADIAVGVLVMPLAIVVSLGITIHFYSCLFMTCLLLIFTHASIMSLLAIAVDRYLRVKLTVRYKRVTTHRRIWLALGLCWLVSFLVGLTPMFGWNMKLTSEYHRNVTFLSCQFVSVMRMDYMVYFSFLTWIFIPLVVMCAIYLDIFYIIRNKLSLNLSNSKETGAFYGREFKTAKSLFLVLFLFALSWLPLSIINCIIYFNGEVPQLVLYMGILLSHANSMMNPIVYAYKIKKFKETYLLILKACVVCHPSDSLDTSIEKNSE
Procedure: (§1) A two-step procedure was adopted to prepare membrane for radioligand binding from cells stably transfected with human adenosine receptor subtypes (hA1, hA2A and hA3 expressed on CHO cells). Firstly, cell fragments and nuclei were removed by using low-speed centrifugation (1,000 g for 10 min). After that, crude membrane fraction from supernatant was then sedimented at 100,000 g for 30 min. The membrane pellet was subsequently re-suspended in the specific binding buffer, frozen in liquid nitrogen and stored at -80°C. For measurement of adenylyl cyclase activity in the hA2B receptors, one-step centrifugation procedure was used; the homogenate was sedimented for 30 min at 54,000 g. The so-obtained crude membrane pellet was re-suspended in 50 mM Tris/HCl, pH 7.4 and used for the adenylyl cyclase assay immediately.
(§2) Non-specific binding was determined using theophylline 1 mM. […] Non-specific binding was determined using N^6-R-phenylisopropyl adenosine (R-PIA) 100 μM. ^41 The binding of [^3H]HEMADO to CHO cells transfected with hA3 adenosine receptors was carried out as described earlier. […] Non-specific binding was determined using R-PIA 100 μM.
(§3) The assay mixture was then filtered through the built-in filter at the bottom of the 96-well microplate filtration system (Millipore Multiscreen MAFC) and washed three times with 200 μL of cold buffer. After addition of 20 μL of scintillator to the dried filter plates, the filter bound radioactivity was counted on a Wallac Micro-Beta counter. All Ki values were calculated by non-linear curve fitting with the program SCTFIT [45].

[2] = system: Salmonella strains TA98 and TA100; assay: Ames mutagenicity test; assay type: cell-based, Salmonella typhimurium; conditions: 10 μM and 100 μM; TA98 and TA100, +S9 and –S9
Procedure: In the toxicity studies, in vitro assays for mutagenicity and cytotoxicity were performed on compounds 5 and 6. These compounds were investigated for their mutagenic potential through the Ames assay. Two Salmonella strains TA98 and TA100 with pre-existing mutations (His^-) were selected. Both strains are unable to synthesize histidine (one of the growth requirements for these strains) and therefore cannot form colonies on the agar plate.
Together with the compounds, the Salmonella strains were incubated in the presence (+S9) and absence (–S9) of a metabolizing system “S9 mix” consisting of 9000 g supernatant fraction of rat liver microsomes, nicotinamide adenine dinucleotide phosphate (NADP) and cofactors. Exogenous “S9 mix” was included due to the lack of CYP metabolizing enzymes in Salmonella typhimurium. In the assay, agar plates +S9 and–S9 were used to detect pro-mutagens for cases where the native chemical was not mutagenic but its metabolites were mutagens, and direct-acting mutagens, respectively. […]
In vitro mutagenicity was performed using a modified Ames Test protocol according to manufacturer’s instructions (MolTox). […] The cultures were then measured for absorbance with a UV spectrophotometer at 660 nm and to be used at a density of approximately 1.0 to 1.2 absorbance units. […] Images of colonies were captured and counted with the aid of ImageJ software.

[3] = molecular target: human A2A receptors expressed in CHO cells (Homo sapiens, UniProt P29274); assay: competition binding at human A2A adenosine receptors ([3H]NECA displacement); conditions: for Ki: displacement of [3H]NECA, CHO cells, 95% confidence limits, n = 3–6, read-out: Ki hA2A; for hA1/hA2A / hA3/hA2A: selectivity ratio of Ki values
Chain of human A2A receptors expressed in CHO cells (P29274 whole entry): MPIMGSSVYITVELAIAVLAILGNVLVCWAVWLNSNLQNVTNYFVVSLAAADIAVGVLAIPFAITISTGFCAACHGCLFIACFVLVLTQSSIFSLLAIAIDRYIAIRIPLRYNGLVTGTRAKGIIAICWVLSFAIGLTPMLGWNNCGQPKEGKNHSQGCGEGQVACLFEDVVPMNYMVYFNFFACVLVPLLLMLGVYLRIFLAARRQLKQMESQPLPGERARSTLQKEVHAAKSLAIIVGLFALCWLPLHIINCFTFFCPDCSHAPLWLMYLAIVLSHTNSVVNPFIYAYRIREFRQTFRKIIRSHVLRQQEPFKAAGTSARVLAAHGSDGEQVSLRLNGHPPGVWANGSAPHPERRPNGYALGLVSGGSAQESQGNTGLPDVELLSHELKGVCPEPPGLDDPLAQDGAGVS
Procedure: as §1, §2, §3

[4] = molecular target: T2, human A1 receptors expressed in CHO cells (Homo sapiens, UniProt P30542); assay: competition binding at human A1 adenosine receptors ([3H]CCPA displacement); conditions: displacement of [3H]CCPA, 95% confidence limits, n = 3–6, read-out: Ki hA1
T2 sequence (P30542 1-326): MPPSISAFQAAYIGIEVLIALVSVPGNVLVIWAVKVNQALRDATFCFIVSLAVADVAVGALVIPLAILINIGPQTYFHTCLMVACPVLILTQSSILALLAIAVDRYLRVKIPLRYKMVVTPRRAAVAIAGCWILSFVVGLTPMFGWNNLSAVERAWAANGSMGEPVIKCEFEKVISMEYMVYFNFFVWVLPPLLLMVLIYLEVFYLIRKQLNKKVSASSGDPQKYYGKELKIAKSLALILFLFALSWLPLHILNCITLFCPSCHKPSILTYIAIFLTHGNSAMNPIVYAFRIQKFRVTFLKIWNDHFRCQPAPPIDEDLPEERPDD
Procedure: as §1, §2, §3

| SMILES | Ki [1] [µM] | mutagenicity (number of His+ revertants) [2] | Ki [3] | hA1/hA2A [3] | hA3/hA2A [3] | Ki [4] [µM] |
| --- | --- | --- | --- | --- | --- | --- |
| Cc1cc(C)nc(N2CCN(C(=O)Cc3c(C)[nH]c4ccccc34)CC2)n1 [Compound 6, 1‐[4‐(4,6‐Dimethylpyrimidin‐2‐yl)piperazin‐1‐yl]‐2‐(2‐methyl‐1H‐indol‐3‐yl)ethan‐1‐one] | > 100 | no significant mutagenicity | 8.71 µM | >11 | >11 | > 100 |
| Cc1cc(C)nc(N2CCN(C(=O)c3c[nH]c4ccccc34)CC2)n1 [Compound 5, 3‐[4‐(4,6‐Dimethylpyrimidin‐2‐yl)piperazine‐1‐carbonyl]‐1H‐indole] | > 100 | no significant mutagenicity | 11.2 µM and 8.7 to 11.2 µM | >9 | >9 | > 100 |

— article PMC5755735, “Discovery of indolylpiperazinylpyrimidines with dual-target profiles at adenosine A2A and dopamine D2 receptors for Parkinson's disease treatment” (PLoS ONE, 2018)
